Results: US9686986B2, “Herbicidal compounds” (SYNGENTA LIMITED, priority 2011, dated 2017)

Key:
Assay in all cases: Glasshouse herbicide test, pre- and post-emergence, percentage damage
Format in all cases: in vivo
Solanum nigrum (SOLNI) = conditions: 1000 g/h, evaluated after 13 days, five point scale; for percentage damage caused to the plant, SOLNI, POST Application: post-emergence; for percentage damage caused to the plant, SOLNI, PRE Application: pre-emergence
Description: (§1) Seeds of a variety of test species are sown in standard soil in pots (Alopecurus myosuroides (ALOMY), Setaria faberi (SETFA), Stellaria media (STEME), Echinochloa crus-galli (ECHCG), Solanum nigrum (SOLNI), Amaranthus retoflexus (AMARE), Ipomoea hederacea (IPOHE), Lolium perenne (LOLPE). After cultivation for one day (pre-emergence) or after 8 days cultivation (post-emergence) under controlled conditions in a glasshouse (at 24/16° C., day/night; 14 hours light; 65% humidity), the plants are sprayed with an aqueous spray solution derived from the formulation of the technical active ingredient in acetone/water (50:50) solution containing 0.5% Tween 20 (polyoxyethelyene sorbitan monolaurate, CAS RN 9005-64-5). Compounds ae applied at 1000 g/h. The test plants are then grown in a glasshouse under controlled conditions in a glasshouse (at 24/16° C., day/night; 14 hours light; 65% humidity) and watered twice daily. After 13 days for pre and post-emergence, the test is evaluated for the percentage damage caused to the plant. The biological activities are shown in the following table on a five point scale (5=80-100%; 4=60-79%; 3=40-59%; 2=20-39%; 1=0-19%).

[1] = test system: Ipomoea hederacea (IPOHE); conditions: 1000 g/h, evaluated after 13 days, five point scale; for percentage damage caused to the plant, IPOHE, POST Application: post-emergence; for percentage damage caused to the plant, IPOHE, PRE Application: pre-emergence
Description: as §1

[2] = test system: Alopecurus myosuroides (ALOMY); conditions: 1000 g/h, evaluated after 13 days, five point scale; for percentage damage caused to the plant, ALOMY, POST Application: post-emergence; for percentage damage caused to the plant, ALOMY, PRE Application: pre-emergence
Description: as §1

[3] = test system: Amaranthus retoflexus (AMARE); conditions: 1000 g/h, evaluated after 13 days, five point scale (Table B1); for percentage damage caused to the plant, AMARE, POST Application: post-emergence; for percentage damage caused to the plant, AMARE, PRE Application: pre-emergence
Description: as §1

[4] = test system: Echinochloa crus-galli (ECHCG); conditions: 1000 g/h, evaluated after 13 days, five point scale; for percentage damage caused to the plant, ECHCG, POST Application: post-emergence; for percentage damage caused to the plant, ECHCG, PRE Application: pre-emergence
Description: as §1

Setaria faberi (SETFA) = conditions: 1000 g/h, evaluated after 13 days, five point scale; for percentage damage caused to the plant, SETFA, POST Application: post-emergence; for percentage damage caused to the plant, SETFA, PRE Application: pre-emergence
Description: as §1

Cn1nnnc1NC(=O)c1cc(Br)c(Cl)cc1F [Compound 1.012]
5 (5=80-100%): percentage damage caused to the plant, IPOHE, POST Application [1] | percentage damage caused to the plant, AMARE, POST Application [3]
1 (1=0-19%): percentage damage caused to the plant, SOLNI, PRE Application (Solanum nigrum (SOLNI)) | percentage damage caused to the plant, IPOHE, PRE Application [1] | percentage damage caused to the plant, ALOMY, PRE Application [2] | percentage damage caused to the plant, ECHCG, PRE Application [4] | percentage damage caused to the plant, SETFA, PRE Application (Setaria faberi (SETFA))
3 (3=40-59%): percentage damage caused to the plant, ECHCG, POST Application [4]
2 (2=20-39%): percentage damage caused to the plant, ALOMY, POST Application [2]
4 (4=60-79%): percentage damage caused to the plant, SOLNI, POST Application (Solanum nigrum (SOLNI)) | percentage damage caused to the plant, AMARE, PRE Application [3] | percentage damage caused to the plant, SETFA, POST Application (Setaria faberi (SETFA))

Cn1nnnc1NC(=O)c1cc(F)ccc1C(F)(F)F [Compound 1.010]
5 (5=80-100%): percentage damage caused to the plant, SOLNI, POST Application (Solanum nigrum (SOLNI)) | percentage damage caused to the plant, SOLNI, PRE Application (Solanum nigrum (SOLNI)) | percentage damage caused to the plant, IPOHE, POST Application [1] | percentage damage caused to the plant, IPOHE, PRE Application [1] | percentage damage caused to the plant, ALOMY, POST Application [2] | percentage damage caused to the plant, ALOMY, PRE Application [2] | percentage damage caused to the plant, AMARE, POST Application [3] | percentage damage caused to the plant, AMARE, PRE Application [3]
4 (4=60-79%): percentage damage caused to the plant, ECHCG, POST Application [4] | percentage damage caused to the plant, ECHCG, PRE Application [4]
2 (2=20-39%): percentage damage caused to the plant, SETFA, POST Application (Setaria faberi (SETFA)) | percentage damage caused to the plant, SETFA, PRE Application (Setaria faberi (SETFA))

CCc1nc(C(C)F)ccc1C(=O)Nc1nnnn1C (stereo not drawn) [Compound 1.005]
2 (2=20-39%): percentage damage caused to the plant, ALOMY, POST Application [2] | percentage damage caused to the plant, SETFA, POST Application (Setaria faberi (SETFA))
3 (3=40-59%): percentage damage caused to the plant, ALOMY, PRE Application [2] | percentage damage caused to the plant, SETFA, PRE Application (Setaria faberi (SETFA))
5 (5=80-100%): percentage damage caused to the plant, SOLNI, POST Application (Solanum nigrum (SOLNI)) | percentage damage caused to the plant, SOLNI, PRE Application (Solanum nigrum (SOLNI)) | percentage damage caused to the plant, IPOHE, POST Application [1] | percentage damage caused to the plant, IPOHE, PRE Application [1] | percentage damage caused to the plant, AMARE, POST Application [3] | percentage damage caused to the plant, AMARE, PRE Application [3] | percentage damage caused to the plant, ECHCG, POST Application [4] | percentage damage caused to the plant, ECHCG, PRE Application [4]

Cc1ccc(C(F)(F)F)c(C(=O)Nc2nnnn2C)c1 [Compound 1.014]
1 (1=0-19%): percentage damage caused to the plant, SETFA, POST Application (Setaria faberi (SETFA)) | percentage damage caused to the plant, SETFA, PRE Application (Setaria faberi (SETFA))
3 (3=40-59%): percentage damage caused to the plant, ALOMY, POST Application [2] | percentage damage caused to the plant, ECHCG, POST Application [4] | percentage damage caused to the plant, ECHCG, PRE Application [4]
5 (5=80-100%): percentage damage caused to the plant, SOLNI, POST Application (Solanum nigrum (SOLNI)) | percentage damage caused to the plant, SOLNI, PRE Application (Solanum nigrum (SOLNI)) | percentage damage caused to the plant, IPOHE, POST Application [1] | percentage damage caused to the plant, AMARE, POST Application [3] | percentage damage caused to the plant, AMARE, PRE Application [3]
4 (4=60-79%): percentage damage caused to the plant, IPOHE, PRE Application [1] | percentage damage caused to the plant, ALOMY, PRE Application [2]
